Series [1] concerns P. falciparum W2. The series is described as follows: In vitro antimalarial activity against P. falciparum W2. Format: cell-based, Plasmodium falciparum. The procedure:
The in vitro activities of AAQMs against P. falciparum strains W2, D6, TM91C235 and TM90C2A were evaluated using the method of Desjardins et al. as modified by Milhous et al. W2 is chloroquine resistant and mefloquine sensitive, D6 is chloroquine sensitive but naturally less susceptible to mefloquine, TM91C235 is resistant to mefloquine, chloroquine and pyrimethamine as is TM90C2A, however this latter parasite is a two pfmdr1 copy strain. We routinely run mefloquine in this screen as a control to ensure assay validity.

Series [2] relates to primary rat forebrain neurons. The series is described as follows: Neurocytotoxicity assay (MTT). The procedure:
The neurocytotoxicity assay of AAQMs was conducted as per Dow et al.; The antimalarial potential of 4-quinolinecarbinolamines may be limited due to neurotoxicity and cross-resistance in mefloquine-resistant Plasmodium falciparum strains; Chemother. (48) 2624-2632 (2004) and is incorporated herein, by reference. This assay utilizes primary rat forebrain neurons and is a multi-endpoint screen. […] The AAQMs outlined in Table 1 were screened at 10, 100 and 1000 μM in triplicate, and the reduction in viability observed was determined using the 3-(4,5-dimethylthiazol-2-yl)-2,5-diphenyltetrazolium bromide (MTT) assay as per Dow et al., discussed above. Approximate IC50 values were calculated on the basis of the level of inhibition observed at each concentration. Full dose response assays were run for mefloquine and WR069878 with two fold dilutions (n=6 wells per dilution) and 11 dilutions for each drug. IC50s were calculated using Prism. Each time the assay is conducted, 20 μM mefloquine is included, as a control. […] Assays are re-run if the loss of viability induced by mefloquine is <40% or >60%. Neuroprotection experiments with 6,7-dinitroquinoxaline-2,3-dione (DNQX) and magnesium were performed as per Dow et al.; Transcriptional profiling of mefloquine-induced disruption of calcium homeostasis in neurons in vitro; Genomics (86)539-550 (2005), which is incorporated by reference, herein. Neurons were exposed to DNQX (100 μM) or magnesium (12 mM) for 5 min, followed by mefloquine (25 μM) or WR069878 (250 μM) for 20 min after which reduction in cell viability was determined. […] DNQX is an inhibitor of non-N-methyl-D-aspartate (NMDA) receptors, whilst magnesium inhibits the functioning of the inositol 1,4,5-trisphosphate (IP3)-mediated calcium signaling pathway at several points. The effects of mefloquine and WR069878 on neuronal calcium homeostasis were assessed utilizing confocal microscopy as per Dow et al, as discussed in Antimicrob Agents Chemother. (48)2624-2632 (2004), cited above, and incorporated by reference, herein. Briefly neurons were loaded with calcium sensitive dye Fluo 3-A for 1 h and were washed prior to image experiments. Neurons were ‘spiked’ with 100 μM mefloquine or WR069878. Subsequent changes in neuronal calcium homeostasis were recorded as fluctuations in the emitted fluorescence of fluo-3-complexed calcium at 530 nm (excitation was 488 nm). Sequential image scans of fields containing 5-25 neurons were used to construct temporal profiles. Scans were made at 10 s intervals. Fluorescence levels for each neuron were normalized 12 to time zero values. Data were then pooled from three and five independent experiments for mefloquine and WR069878 respectively.

The test system of series [3] is FVO strain of P. falciparum. The series is described as follows: Efficacy in P. falciparum-challenged Aotus monkeys. Format: in vivo, Plasmodium falciparum in Aotus lemurinus lemurinus.
For series [4] the following is noted: Aotus, 10 mg/kg/day oral x7.

In brackets after ≈: the same amount, converted by molar mass. Read-outs that look alike come from different tables or passages of the source.

Consider 1 compound from patent US20110092488A1, “Quninoline Methanol Compounds for the Treatment and Prevention of Parasitic Infections” (priority 2005, published 2011).

For the compound `CCCCN(CCCC)CC(O)c1cc(-c2ccc(Cl)cc2)nc2cc(Cl)c(C)cc12` (stereo not shown) [WR069878], the “IC90 against W2” value in series [1] is 0.49 ng/mL (≈ 1.07 nM). Besides, the 50% inhibitory concentration (IC50) in series [2] (read-out: Neurotoxicity IC50, full dose response, FIG. 2(a)) is 242 µM; in series [2] (read-out: Neurotoxicity ranking (IC50 in μM), approximate IC50 from screen at 10, 100 and 1000 μM, MTT) it was 200 µM. Also, the “Outcome in Aotus” value in series [3] (10 mg/kg/day x7 oral, groups of two, Cure = parasite free 90 days, R = average day of recrudescence, Failure = rescued with mefloquine) is “Cures and Cure”. For the same compound, the Outcome entry in series [3] (Aotus, oral, 10 mg/kg/day x 7 days, primary treatment) is “Cure”. In addition, the “Mean peak concentration” value in series [4] worked out at 65 ng/mL. Moreover, the “Plasma conc on day 1 (ng/ml) 2 h” value in series [4] (day 1, 2 h) stood at 38 ng/mL. The “Plasma conc on day 1 (ng/ml) 24 h” value in series [4] (day 1, 24 h) came out at 16 ng/mL. In addition, the “Plasma conc. on day 7 (ng/ml) 2 h” value in series [4] (day 7, 2 h) is 91 ng/mL. Further, the “Plasma conc. on day 7 (ng/ml) 24 h” value in series [4] (day 7, 24 h) is 40 ng/mL.

One may read the IC50 as the midpoint of a concentration-inhibition curve.
